Values after ≈ are worked out from the molar mass of the structure shown. Active and inactive are the calls of the source. No cut-off for these calls is given here. *1 amine or outer side, *2 acyl side, *3 side chain or, on linkers, in order; H or OH if unused. Where a SMILES comes first, the peptide text is derived from it. [ ]: non-standard residue; d: D form. ξ: configuration not given here. Phe(4-NO2) = N[C@@H](Cc1ccc([N+](=O)[O-])cc1)C(=O)O; Pro(3ξ,4ξ-(CH2)4) = O=C(O)[C@H]1NCC2CCCCC21; X1 = O=C([C@H]1C2CCCCC2CN1[*:1])[*:2]; Tic = O=C(O)[C@@H]1Cc2ccccc2CN1; dTic = O=C(O)[C@H]1Cc2ccccc2CN1; dOrn = NCCC[C@@H](N)C(=O)O; Dab = NCC[C@H](N)C(=O)O; βAla = NCCC(=O)O
Experiments:
[1] = system: Lipopolysaccharide (LPS); assay: Binding affinity to Klebsiella pneumoniae lipopolysaccharide incorporated 75% POPC/20% POPE/5% POPG liposome by Far-UV circular dichroism spectroscopy
[2] = system: Lipopolysaccharide (LPS); assay: Binding affinity to Klebsiella pneumoniae lipopolysaccharide at 0.1 mg by [1H] NMR spectroscopy
[3] = system: Lipopolysaccharide (LPS); assay: Binding affinity to Pseudomonas aeruginosa lipopolysaccharide at 0.1 mg by [1H] NMR spectroscopy
[4] = system: Lipopolysaccharide (LPS); assay: Binding affinity to Pseudomonas aeruginosa lipopolysaccharide assessed as normalized peak area of proton resonances in region of 1.5 to 0.5 ppm by […] relative to untreated control
[5] = system: Lipopolysaccharide (LPS); assay: Binding affinity to Pseudomonas aeruginosa lipopolysaccharide incorporated into 59% POPC/20% POPE/21% POPG liposomes by Far-UV circular dichroism spectroscopy; details: Liposome
[6] = system: Lipopolysaccharide (LPS); assay: Binding affinity to SUV consisting Klebsiella pneumoniae lipopolysaccharide by CD spectroscopy
[7] = system: Klebsiella pneumoniae; assay: Antimicrobial activity against Klebsiella pneumoniae BAMC 07-18; type: functional; details: for MIC: Klebsiella pneumoniae, BAMC 07-18
[8] = system: Lipopolysaccharide (LPS); assay: Binding affinity to Klebsiella pneumoniae lipopolysaccharide assessed as normalized peak area of proton resonances in region of 1.5 to 0.5 ppm by […] relative to untreated control
[9] = system: Lipopolysaccharide (LPS); assay: Binding affinity to Klebsiella pneumoniae lipopolysaccharide incorporated into 75% POPC/20% POPE/5% POPG liposomes by Far-UV circular dichroism spectroscopy; details: Liposome
[10] = system: Lipopolysaccharide (LPS); assay: Binding affinity to Klebsiella pneumoniae lipopolysaccharide incorporated into phospholipid 75% POPC/20% POPE/5% POPG liposomes by Far-UV circular dichroism spectroscopy
[11] = system: Lipopolysaccharide (LPS); assay: Binding affinity to SUV consisting Pseudomonas aeruginosa lipopolysaccharide by CD spectroscopy
[12] = system: Lipopolysaccharide (LPS); assay: Binding affinity to Pseudomonas aeruginosa lipopolysaccharide incorporated into 59% POPC/20% POPE/21% POPG by Far-UV circular dichroism spectroscopy
[13] = system: Lipopolysaccharide (LPS); assay: Binding affinity to Pseudomonas aeruginosa lipopolysaccharide incorporated into 80% POPC/20% POPG by Far-UV circular dichroism spectroscopy
[14] = system: Pseudomonas aeruginosa; assay: Antimicrobial activity against Pseudomonas aeruginosa PAO1; type: functional; details: for MIC: Pseudomonas aeruginosa, PAO1

SMILES | Activity [1] | Activity [2] | Activity [3] | Activity [4] | Activity [5] | Activity [6] | MBC [7] | MIC [7] | Activity [8] | Activity [9] | Activity [10] | Activity [11] | Activity [12] | Activity [13] | MBC [14] | MIC [14]
CC(=O)NCC(=O)N[C@@H](Cc1ccccc1)C(=O)N1Cc2ccccc2C[C@H]1C(=O)N1CC2CCCCC2[C@H]1C(=O)NCC(=O)N[C@@H](CCCCN)C(=O)N1Cc2ccccc2C[C@H]1C(=O)N1CC2CCCCC2[C@H]1C(=O)NCC(=O)N[C@@H](Cc1ccccc1)C(=O)N1Cc2ccccc2C[C@H]1C(=O)N1CC2CCCCC2[C@H]1C(=O)NCC(=O)N[C@@H](CCCCN)C(=O)N1Cc2ccccc2C[C@H]1C(=O)N[C@@H](CCCCN)C(=O)N[C@@H](CCCCN)C(=O)N[C@@H](CCCCN)C(=O)N[C@@H](CCCCN)C(N)=O (stereo partly drawn) (Ac-GF[Tic][Pro(3ξ,4ξ-(CH2)4)]GK[Tic][Pro(3ξ,4ξ-(CH2)4)]GF[Tic][Pro(3ξ,4ξ-(CH2)4)]GK[Tic]KKKK-NH2) | Active | Active | Active | 33% | Active | Active | 40 µM (≈ 97.6 µg/mL) | 40 µM (≈ 97.6 µg/mL) | 81% | Active | Active | Active | Active | Active | 40 µM (≈ 97.6 µg/mL) | 40 µM (≈ 97.6 µg/mL)
CC(=O)NCC(=O)N[C@@H](Cc1ccccc1)C(=O)N1Cc2ccccc2C[C@H]1C(=O)N1CC2CCCCC2[C@H]1C(=O)NCC(=O)N[C@@H](CCCNC(=N)N)C(=O)N1Cc2ccccc2C[C@H]1C(=O)N1CC2CCCCC2[C@H]1C(=O)NCC(=O)N[C@@H](Cc1ccccc1)C(=O)N1Cc2ccccc2C[C@H]1C(=O)N1CC2CCCCC2[C@H]1C(=O)NCC(=O)N[C@@H](CCCNC(=N)N)C(=O)N1Cc2ccccc2C[C@H]1C(=O)N[C@@H](CCCNC(=N)N)C(=O)N[C@@H](CCCNC(=N)N)C(=O)N[C@@H](CCCNC(=N)N)C(=O)N[C@@H](CCCNC(=N)N)C(N)=O (stereo partly drawn) (Ac-GF[Tic][Pro(3ξ,4ξ-(CH2)4)]GR[Tic][Pro(3ξ,4ξ-(CH2)4)]GF[Tic][Pro(3ξ,4ξ-(CH2)4)]GR[Tic]RRRR-NH2) | Active | Active | Active | 39% | Active | Active | 38.4 µM (≈ 100 µg/mL) | 19.1 µM (≈ 49.8 µg/mL) | 81% | Active | Active | Active | Active | Active | > 100 µM | 38.4 µM (≈ 100 µg/mL)
CC(=O)NCC(=O)N[C@@H](Cc1ccccc1)C(=O)N1Cc2ccccc2C[C@H]1C(=O)N1CC2CCCCC2[C@H]1C(=O)NCC(=O)N[C@@H](CCN)C(=O)N1Cc2ccccc2C[C@H]1C(=O)N1CC2CCCCC2[C@H]1C(=O)NCC(=O)N[C@@H](Cc1ccccc1)C(=O)N1Cc2ccccc2C[C@H]1C(=O)N1CC2CCCCC2[C@H]1C(=O)NCC(=O)N[C@@H](CCN)C(=O)N1Cc2ccccc2C[C@H]1C(=O)N[C@@H](CCN)C(=O)N[C@@H](CCN)C(=O)N[C@@H](CCN)C(=O)N[C@@H](CCN)C(N)=O (stereo partly drawn) (Ac-GF[Tic][Pro(3ξ,4ξ-(CH2)4)]G[Dab][Tic][Pro(3ξ,4ξ-(CH2)4)]GF[Tic][Pro(3ξ,4ξ-(CH2)4)]G[Dab][Tic][Dab][Dab][Dab][Dab]-NH2) | Active | Active | Active | 29% | Active | Active | 5.5 µM (≈ 12.5 µg/mL) | 5.5 µM (≈ 12.5 µg/mL) | 89% | Active | Active | Active | Active | Active | 11 µM (≈ 25 µg/mL) | 5.5 µM (≈ 12.5 µg/mL)
CC(=O)NCC(=O)N[C@@H](Cc1ccccc1)C(=O)N1Cc2ccccc2C[C@H]1C(=O)N1CC2CCCCC2[C@@H]1C(=O)NCC(=O)N[C@H](CCCN)C(=O)N1Cc2ccccc2C[C@@H]1C(=O)N1CC2CCCCC2[C@H]1C(=O)NCC(=O)N[C@H](Cc1ccccc1)C(=O)N1Cc2ccccc2C[C@@H]1C(=O)N1CC2CCCCC2[C@@H]1C(=O)NCC(=O)N[C@H](CCCN)C(=O)N1Cc2ccccc2C[C@@H]1C(=O)N[C@H](CCCN)C(=O)N[C@H](CCCN)C(=O)N[C@H](CCCN)C(=O)N[C@H](CCCN)C(N)=O (stereo partly drawn) (Ac-GF[Tic][X1]G[dOrn][dTic][Pro(3ξ,4ξ-(CH2)4)]G[dF][dTic][X1]G[dOrn][dTic][dOrn][dOrn][dOrn][dOrn]-NH2) | Active | Active | Active | 36% | Active | Active | 21 µM (≈ 49.5 µg/mL) | 21 µM (≈ 49.5 µg/mL) | 93% | Active | Active | Active | Active | Active | 21 µM (≈ 49.5 µg/mL) | 21 µM (≈ 49.5 µg/mL)
CC(=O)NCC(=O)N[C@@H](Cc1ccc([N+](=O)[O-])cc1)C(=O)N1Cc2ccccc2C[C@H]1C(=O)N1CC2CCCCC2[C@H]1C(=O)NCC(=O)N[C@@H](CCCCN)C(=O)N1Cc2ccccc2C[C@H]1C(=O)N1CC2CCCCC2[C@H]1C(=O)NCC(=O)N[C@@H](Cc1ccc([N+](=O)[O-])cc1)C(=O)N1Cc2ccccc2C[C@H]1C(=O)N1CC2CCCCC2[C@H]1C(=O)NCC(=O)N[C@@H](CCCCN)C(=O)N1Cc2ccccc2C[C@H]1C(=O)N[C@@H](CCCCN)C(=O)N[C@@H](CCCCN)C(=O)N[C@@H](CCCCN)C(=O)N[C@@H](CCCCN)C(N)=O (stereo partly drawn) (Ac-G[Phe(4-NO2)][Tic][Pro(3ξ,4ξ-(CH2)4)]GK[Tic][Pro(3ξ,4ξ-(CH2)4)]G[Phe(4-NO2)][Tic][Pro(3ξ,4ξ-(CH2)4)]GK[Tic]KKKK-NH2) | Active |  |  |  | Active | Active | 19.6 µM (≈ 49.6 µg/mL) | 19.6 µM (≈ 49.6 µg/mL) |  | Active | Active | Active | Active | Active | 39.1 µM (≈ 99 µg/mL) | 19.6 µM (≈ 49.6 µg/mL)
CC(=O)NCCC(=O)N[C@@H](Cc1ccccc1)C(=O)N1Cc2ccccc2C[C@H]1C(=O)N1CC2CCCCC2[C@H]1C(=O)NCCC(=O)N[C@@H](CCCCN)C(=O)N1Cc2ccccc2C[C@H]1C(=O)N1CC2CCCCC2[C@H]1C(=O)NCCC(=O)N[C@@H](Cc1ccccc1)C(=O)N1Cc2ccccc2C[C@H]1C(=O)N1CC2CCCCC2[C@H]1C(=O)NCCC(=O)N[C@@H](CCCCN)C(=O)N1Cc2ccccc2C[C@H]1C(=O)N[C@@H](CCCCN)C(=O)N[C@@H](CCCCN)C(=O)N[C@@H](CCCCN)C(=O)N[C@@H](CCCCN)C(N)=O (stereo partly drawn) (Ac-[βAla]F[Tic][Pro(3ξ,4ξ-(CH2)4)][βAla]K[Tic][Pro(3ξ,4ξ-(CH2)4)][βAla]F[Tic][Pro(3ξ,4ξ-(CH2)4)][βAla]K[Tic]KKKK-NH2) | Active |  |  |  | Active | Active | 40 µM (≈ 99.9 µg/mL) | 40 µM (≈ 99.9 µg/mL) |  | Active | Active | Active | Active | Active | 40 µM (≈ 99.9 µg/mL) | 40 µM (≈ 99.9 µg/mL)

From ChEMBL document CHEMBL3351559, “Spectroscopic investigations of the binding mechanisms between antimicrobial peptides and membrane models of Pseudomonas aeruginosa and Klebsiella pneumoniae” (2014)
